The supplement of paper PMC10307832

Legend:
Test in all cases: relative viability (nuclei count vs DMSO), 5 days (fraction); higher = more cells survive
[1] = compound: C/C(=N\NC(=S)N1CCC1)/C2=CC=CC=N2 + CC(=O)Nc1cccc(-n2c(=O)n(C3CC3)c(=O)c3c(Nc4ccc(I)cc4F)n(C)c(=O)c(C)c32)c1 [Trametinib] (partner 0.02 µM)
Summary of the method: (§1)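 A single step with final 0.05% Triton X-100, 1% formaldehyde and 1 ug/ml Hoechst fixed the cells and stained nuclei 5 days after treatment. Lung cancer cell lines in 1536-well plates had been treated by pin tool the day after seeding with one drug alone or a fixed anchor-drug dose plus five library-drug doses (not always all listed) in √10 steps, and nuclei were counted on 4× images. Relative viability is the ratio of nuclei in treated wells to nuclei in vehicle wells, taken as the median of duplicate plates.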

[2] = compound: C/C(=N\NC(=S)N1CCC1)/C2=CC=CC=N2 + CC(C)C[C@H](NC(=O)[C@H](Cc1ccccc1)NC(=O)c1cnccn1)B(O)O [Bortezomib] (partner 0.002 µM)
Summary of the method: as §1

[3] = compound: C/C(=N\NC(=S)N1CCC1)/C2=CC=CC=N2 + CS(=O)(=O)N1CCN(Cc2cc3nc(-c4cccc5[nH]ncc45)nc(N4CCOCC4)c3s2)CC1 [Pictilisib] (partner 1 µM)
Summary of the method: as §1

[4] = compound: C/C(=N\NC(=S)N1CCC1)/C2=CC=CC=N2 + O=C(c1cc(Cc2n[nH]c(=O)c3ccccc23)ccc1F)N1CCN(C(=O)C2CC2)CC1 [Olaparib] (partner 8 µM)
Summary of the method: as §1

Cell Line | relative viability ([1]; first compound 0.05 µM) | relative viability ([1]; first compound 0.1581 µM) | relative viability ([1]; first compound 0.5 µM) | relative viability ([1]; first compound 1.581 µM) | relative viability ([1]; first compound 5 µM) | relative viability ([2]; first compound 0.05 µM) | relative viability ([2]; first compound 0.1581 µM) | relative viability ([2]; first compound 0.5 µM) | relative viability ([2]; first compound 1.581 µM) | relative viability ([2]; first compound 5 µM) | relative viability ([3]; first compound 0.05 µM) | relative viability ([3]; first compound 0.1581 µM) | relative viability ([3]; first compound 0.5 µM) | relative viability ([3]; first compound 1.581 µM) | relative viability ([3]; first compound 5 µM) | relative viability ([4]; first compound 0.05 µM) | relative viability ([4]; first compound 0.1581 µM) | relative viability ([4]; first compound 0.5 µM) | relative viability ([4]; first compound 1.581 µM) | relative viability ([4]; first compound 5 µM)
LCLC-103H | 0.303 | 0.622 | 0.324 | 0.357 | 0.256 | 0.294 | 0.353 | 0.242 | 0.229 | 0.206 | 0.269 | 0.254 | 0.266 | 0.234 | 0.265 | 0.3 | 0.613 | 0.222 | 0.236 | 0.256
LOU-NH91 | 0.632 | 0.6 | 0.583 | 0.512 | 0.452 | 0.435 | 0.443 | 0.501 | 0.37 | 0.387 | 0.367 | 0.428 | 0.439 | 0.374 | 0.356 | 0.482 | 0.562 | 0.458 | 0.44 | 0.451
LU99A | 0.186 | 0.405 | 0.183 | 0.152 | 0.146 | 0.135 | 0.108 | 0.165 | 0.124 | 0.147 | 0.12 | 0.106 | 0.0914 | 0.146 | 0.122 | 0.168 | 0.207 | 0.124 | 0.102 | 0.128
LXF-289 | 0.284 | 0.553 | 0.206 | 0.221 | 0.176 | 0.314 | 0.216 | 0.255 | 0.203 | 0.121 | 0.192 | 0.151 | 0.16 | 0.103 | 0.123 | 0.382 | 0.647 | 0.175 | 0.176 | 0.0913
NCI-H23 | 0.119 | 0.137 | 0.121 | 0.0972 | 0.128 | 0.108 | 0.148 | 0.171 | 0.105 | 0.136 | 0.132 | 0.16 | 0.159 | 0.132 | 0.117 | 0.129 | 0.101 | 0.0966 | 0.0889 | 0.111
NCI-H322M | 0.451 | 0.45 | 0.424 | 0.43 | 0.423 | 0.176 | 0.295 | 0.296 | 0.287 | 0.324 | 0.23 | 0.38 | 0.275 | 0.263 | 0.287 | 0.334 | 0.334 | 0.398 | 0.398 | 0.467
NCI-H441 | 0.143 | 0.173 | 0.154 | 0.11 | 0.131 | 0.162 | 0.153 | 0.171 | 0.146 | 0.127 | 0.127 | 0.101 | 0.115 | 0.108 | 0.128 | 0.167 | 0.136 | 0.125 | 0.113 | 0.138
NCI-H460 | 0.0177 | 0.0199 | 0.0221 | 0.0121 | 0.0173 | 0.0169 | 0.0164 | 0.0256 | 0.0129 | 0.0105 | 0.108 | 0.12 | 0.0972 | 0.13 | 0.0516 | 0.0648 | 0.0442 | 0.0577 | 0.0429 | 0.0274
NCI-H520 | 0.101 | 0.129 | 0.118 | 0.123 | 0.159 | 0.137 | 0.167 | 0.126 | 0.102 | 0.166 | 0.176 | 0.186 | 0.18 | 0.16 | 0.208 | 0.122 | 0.131 | 0.125 | 0.106 | 0.143
NCI-H596 | 0.613 | 0.296 | 0.293 | 0.201 | 0.239 | 0.518 | 0.309 | 0.237 | 0.233 | 0.276 | 0.251 | 0.257 | 0.223 | 0.212 | 0.277 | 0.616 | 0.391 | 0.347 | 0.31 | 0.292
NCI-H647 | 0.0951 | 0.0887 | 0.127 | 0.114 | 0.13 | 0.165 | 0.105 | 0.0582 | 0.072 | 0.0851 | 0.0857 | 0.0882 | 0.104 | 0.0844 | 0.15 | 0.0792 | 0.0588 | 0.0743 | 0.0667 | 0.0631
NCI-H650 | 0.17 | 0.207 | 0.204 | 0.169 | 0.151 | 0.181 | 0.238 | 0.199 | 0.134 | 0.196 | 0.234 | 0.235 | 0.25 | 0.201 | 0.202 | 0.135 | 0.151 | 0.147 | 0.114 | 0.138
NCI-H661 | 0.208 | 0.263 | 0.26 | 0.224 | 0.213 | 0.213 | 0.2 | 0.185 | 0.217 | 0.185 | 0.222 | 0.239 | 0.232 | 0.237 | 0.21 | 0.244 | 0.239 | 0.202 | 0.243 | 0.219
NCI-H727 | 0.361 | 0.33 | 0.358 | 0.367 | 0.318 | 0.171 | 0.214 | 0.156 | 0.174 | 0.184 | 0.236 | 0.195 | 0.154 | 0.15 | 0.139 | 0.437 | 0.273 | 0.295 | 0.347 | 0.4
